Assay results as given in US10202391B2, “Chemical compounds” (AstraZeneca AB, priority 2015, dated 2019).

Columns and labels:
[1] = system: phospho-p90RSK in A375 cell line; assay: A375 Phospho-p90RSK Cellular Assay; format: cell-based, human; conditions: Homo sapiens, A375 cells, 2 hours incubation
Experimental: (§1) All compounds or DMSO (dimethyl sulphoxide) for the ERK2 Mass Spectrometry and A375 phospho-p90RSK assays were dispensed from source plates containing compounds at 10 mM in 100% (v/v) DMSO or 100% DMSO, directly into assay plates using an Echo 555 Acoustic dispenser (Labcyte Inc™). Depending on the assay, two separate plate preparations were followed. In Workflow A, 10 mM compound stocks were diluted 1:100 using a fixed-tip 96-head Agilent VPrep liquid handler (Agilent Technologies, Santa Clara, Calif.) to give four intermediate dilutions (10 mM, 100 μM, 1 μM, 10 nM). In Workflow B, 10 mM compound stocks were diluted 1:10 using a Tecan Freedom Evo (Tecan Group Ltd., Switzerland), and then 1:100 using the Echo 555 and Labcyte LX to produce three intermediate dilutions across three Labcyte qualified source plates (1 mM, 10 μM, 100 nM). These intermediate dilution plates were then used by the Echo 555 to generate final assay-ready compound plates with a 12 point dose range (10, 3, 1, 0.25, 0.1, 0.03, 0.01, 0.0025, 0.001, 0.0003, 0.0001, 0.0000125 μM) in order to calculate compound IC50s, with a total DMSO concentration in the assay of 1%. For the ERK2 Mass Spectrometry assay Workflow B was used. For the A375 phospho-p90RSK cell assay, the intermediate 1:100 dilution plate described in Workflow A was used by the Echo to dispense compounds and DMSO directly into the cell plates with a 12 point dose range (30, 10, 3.125, 1.25, 0.3, 0.1, 0.03125, 0.0125, 0.003, 0.001, 0.0003125, 0.00003 μM) in order to calculate compound IC50's, with a total DMSO concentration in the assay of 0.3%.
A375 Phospho-p90RSK Cellular Assay
A375 cells were cultured in cell media composed of DMEM (Dulbecco's modified Eagle's medium), 10% (v/v) Foetal Calf Serum and 1% (v/v) L-Glutamine. After harvesting, cells were dispensed into black, 384-well Costar plates (#3712, Corning) to give 2400 cells per well in a total volume of 40 μl cell media, and were incubated overnight at 37° C., 90% relative humidity and 5% CO2 in a rotating incubator. Test compounds and reference controls were dosed directly into the cell plates using a Labcyte Echo 555 acoustic dispenser. The cell plates were then incubated for 2 hours at 37° C. before being fixed by the addition of 20 μl 12% formaldehyde in PBS/A (4% final concentration), followed by a 20 minute room temperature incubation, and then a 2× wash with 150 μl PBS/A (phosphate buffered saline containing albumin) using a BioTek ELx405 platewasher. Cells were permeabilised with 20 μl 0.1% Triton X-100 in PBS/A for 20 minutes at room temperature, and then washed 1× with 100 μl PBS/A. Primary phospho-p90RSK (Thr359) (D1E9) rabbit monoclonal antibody (#8753, Cell Signaling Technology) was diluted 1:1000 in assay buffer (0.05% (v/v) Tween, 5% (v/v) Foetal Calf Serum, in PBS/A), 20 μl added per well, and plates were incubated at 4° C. overnight. Cell plates were washed 2× with 200 μl PBS/T (phosphate buffered saline containing Tween-20), then 20 μl 1:500 dilution in assay buffer of Alexa Fluor® 647 goat anti-rabbit IgG secondary antibody (#A31573, Molecular Probes, Life Technologies), with a 1:5000 dilution of Hoechst 33342, was added per well. Following a 90 minute incubation at room temperature, plates were washed 2× with 200 μl PBS/T, and 40 μl PBS/A was added per well. Stained cell plates were covered with black lid seals, and then read on a Cellomics ArrayScan™ VTI imaging platform (Thermo Scientific), using an XF53 filter with 10× objective, with a LED light source set-up to analyse nuclear staining with Hoechst 33342 (405 nm) and secondary antibody staining of phospho-p90RSK (647 nm). Data was analysed and IC50's were calculated using Genedata Screener® software.

ERK2 = target: T1, ERK2 (Homo sapiens, UniProt P28482); assay: ERK2 Rapidfire Mass Spectrometry Inhibition of Catalysis Assay; format: biochemical; conditions: 1.2 nM ERK2, 16 μM Erktide, 120 μM ATP (measured Km), 15 minute pre-incubation; read-out: ERK2 Mass Spectrometry Enzyme IC50
T1 construct: made in house
Experimental: as §1
ERK2 Rapidfire Mass Spectrometry Inhibition of Catalysis Assay
MEK U911-activated ERK2 protein was expressed and purified in-house. Enzyme and substrate solutions were made up in assay buffer consisting of 50 mM Tris (pH 7.5), 10 mM MgCl2, 0.1 mM EGTA (ethylene glycol tetraacetic acid), 10 mM DTT (dithiothreitol) and 0.01% (v/v) CHAPS (3-[(3-Cholamidopropyl)dimethylammonio]-1-propanesulfonate). 1.2 nM ERK2 protein was prepared in assay buffer and 10 μl was dispensed into each well of a polypropylene, 384-well plate (#781201, Greiner) containing test and reference control compounds. […] The reaction was allowed to progress for 20 minutes at room temperature before being quenched by the addition of 80 al 1% (v/v) formic acid. The assay plates were then run on the RapidFire Mass Spectrometry platform (Agilent) to measure substrate (unphosphorylated Erktide) and product (phosphorylated Erktide) levels. Data was analysed and IC50's (half maximal inhibitory concentration) were calculated using Genedata Screener® software.

T1 sequence (P28482 whole entry): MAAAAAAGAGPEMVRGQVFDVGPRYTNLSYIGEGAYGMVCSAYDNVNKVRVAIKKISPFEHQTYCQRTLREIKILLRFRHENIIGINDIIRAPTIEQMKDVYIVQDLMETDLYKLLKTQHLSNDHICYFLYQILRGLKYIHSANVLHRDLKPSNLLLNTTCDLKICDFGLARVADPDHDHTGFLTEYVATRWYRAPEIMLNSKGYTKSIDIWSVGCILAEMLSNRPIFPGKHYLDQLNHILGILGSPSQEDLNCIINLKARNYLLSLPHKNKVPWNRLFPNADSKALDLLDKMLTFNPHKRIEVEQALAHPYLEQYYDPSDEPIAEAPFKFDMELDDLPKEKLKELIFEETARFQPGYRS

Compound	IC50 ([1]; A-375, 2 h)	IC50 (ERK2)	IC50 ([1]; A-375)
Cc1cnc(Nc2ccnn2C)nc1-c1cn2c(n1)C(=O)N(Cc1ccc(F)c(F)c1)CC2 [Example 33, 7-(3,4-Difluorobenzyl)-2-(5-methyl-2-((1-methyl-1H-pyrazol-5-yl)amino)pyrimidin-4-yl)-6,7-dihydroimidazo[1,2-a]pyrazin-8(5H)-one]	31 nM	0.8 nM	–
COc1cc(CN2C(=O)c3nc(-c4nc(Nc5ccnn5C)ncc4C)cn3C[C@@H]2C)ccc1F [Example 24, (S)-7-(4-Fluoro-3-methoxybenzyl)-6-methyl-2-(5-methyl-2-((1-methyl-1H-pyrazol-5-yl)amino)pyrimidin-4-yl)-6,7-dihydroimidazo[1,2-a]pyrazin-8(5H)-one]	–	0.5 nM	84 nM
Cc1cccc(CN2C(=O)c3nc(-c4nc(Nc5ccnn5C)ncc4Cl)cn3C[C@@H]2C)n1 [Example 11, (S)-2-(5-chloro-2-((1-methyl-1H-pyrazol-5-yl)amino)pyrimidin-4-yl)-6-methyl-7-((6-methylpyridin-2-yl)methyl)-6,7-dihydroimidazo[1,2-a]pyrazin-8(5H)-one]	–	0.8 nM	150 nM
C[C@H]1Cn2cc(-c3nc(Nc4ccnn4C)ncc3Cl)nc2C(=O)N1Cc1cccc(C(F)F)n1 [Example 9, (S)-2-(5-Chloro-2-((1-methyl-1H-pyrazol-5-yl)amino)pyrimidin-4-yl)-7-((6-(difluoromethyl)pyridin-2-yl)methyl)-6-methyl-6,7-dihydroimidazo[1,2-a]pyrazin-8(5H)-one]	–	0.5 nM	190 nM
Cc1cccc(CN2CCn3cc(-c4ccnc(Nc5ccnn5C)n4)nc3C2=O)n1 [Example 1, 2-(2-((1-Methyl-1H-pyrazol-5-yl)amino)pyrimidin-4-yl)-7-((6-methylpyridin-2-yl)methyl)-6,7-dihydroimidazo[1,2-a]pyrazin-8(5H)-one]	–	17.4 nM	17000 nM
Cc1cnc(Nc2ccnn2C)nc1-c1cn2c(n1)C(=O)N(Cc1ccc(F)c(Cl)c1)CC2 [Example 12, 7-(3-Chloro-4-fluorobenzyl)-2-(5-methyl-2-((1-methyl-1H-pyrazol-5-yl)amino)pyrimidin-4-yl)-6,7-dihydroimidazo[1,2-a]pyrazin-8(5H)-one]	–	0.6 nM	3 nM
Cc1cnc(Nc2ccnn2C)nc1-c1cn2c(n1)C(=O)N(Cc1ccnc(C(F)(F)F)c1)[C@@H](C)C2 [Example 30, (S)-6-Methyl-2-(5-methyl-2-((1-methyl-1H-pyrazol-5-yl)amino)pyrimidin-4-yl)-7-((2-(trifluoromethyl)pyridin-4-yl)methyl)-6,7-dihydroimidazo[1,2-a]pyrazin-8(5H)-one]	–	0.7 nM	200 nM
Cc1cnc(Nc2ccnn2C)nc1-c1cn2c(n1)C(=O)N(Cc1cccc(C(F)(F)F)n1)CC2 [Example 5, 2-(5-Methyl-2-((1-methyl-1H-pyrazol-5-yl)amino)pyrimidin-4-yl)-7-((6-(trifluoromethyl)pyridin-2-yl)methyl)-6,7-dihydroimidazo[1,2-a]pyrazin-8(5H)-one]	–	2 nM	110 nM
COC[C@H]1Cn2cc(-c3nc(Nc4ccnn4C)ncc3C)nc2C(=O)N1Cc1cc(F)cc(F)c1 [Example 40, (R)-7-(3,5-difluorobenzyl)-6-(methoxymethyl)-2-(5-methyl-2-((1-methyl-1H-pyrazol-5-yl)amino)pyrimidin-4-yl)-6,7-dihydroimidazo[1,2-a]pyrazin-8(5H)-one]	–	1.1 nM	32 nM

The remaining molecules from weak to strong by IC50 (ERK2), led by results:

IC50 ([1]; A-375, 2 h)	IC50 (ERK2)	IC50 ([1]; A-375)	Compound
–	1.4 nM	51 nM	Cc1cnc(Nc2ccnn2C)nc1-c1cn2c(n1)C(=O)N(Cc1cccc(C(F)(F)F)n1)[C@H](C)C2 [Example 36, (R)-6-Methyl-2-(5-methyl-2-((1-methyl-1H-pyrazol-5-yl)amino)pyrimidin-4-yl)-7-((6-(trifluoromethyl)pyridin-2-yl)methyl)-6,7-dihydroimidazo[1,2-a]pyrazin-8(5H)-one]
–	1.1 nM	210 nM	C[C@H]1Cn2cc(-c3nc(Nc4ccnn4C)ncc3Cl)nc2C(=O)N1Cc1ccnc(C(F)(F)F)n1 [Example 8, (S)-2-(5-chloro-2-((1-methyl-1H-pyrazol-5-yl)amino)pyrimidin-4-yl)-6-methyl-7-((2-(trifluoromethyl)pyrimidin-4-yl)methyl)-6,7-dihydroimidazo[1,2-a]pyrazin-8(5H)-one]
–	1.1 nM	200 nM	Cc1cnc(Nc2ccnn2C)nc1-c1cn2c(n1)C(=O)N(Cc1ccnc(C(F)(F)F)n1)[C@@H](C)C2 [Example 26, (S)-6-methyl-2-(5-methyl-2-((1-methyl-1H-pyrazol-5-yl)amino)pyrimidin-4-yl)-7-((2-(trifluoromethyl)pyrimidin-4-yl)methyl)-6,7-dihydroimidazo[1,2-a]pyrazin-8(5H)-one]
–	0.7 nM	64 nM	Cc1cnc(Nc2ccnn2C)nc1-c1cn2c(n1)C(=O)N(Cc1cccc(C(F)F)n1)[C@H](C)C2 [Example 37, (R)-7-((6-(Difluoromethyl)pyridin-2-yl)methyl)-6-methyl-2-(5-methyl-2-((1-methyl-1H-pyrazol-5-yl)amino)pyrimidin-4-yl)-6,7-dihydroimidazo[1,2-a]pyrazin-8(5H)-one]
–	0.6 nM	150 nM	Cc1cnc(Nc2ccnn2C)nc1-c1cn2c(n1)C(=O)N(Cc1cccc(C(F)F)n1)CC2 [Example 15, 7-((6-(Difluoromethyl)pyridin-2-yl)methyl)-2-(5-methyl-2-((1-methyl-1H-pyrazol-5-yl)amino)pyrimidin-4-yl)-6,7-dihydroimidazo[1,2-a]pyrazin-8(5H)-one]
–	0.6 nM	25 nM	C[C@H]1Cn2cc(-c3nc(Nc4ccnn4C)ncc3Cl)nc2C(=O)N1Cc1ccc(F)c(F)c1 [Example 6, (S)-2-(5-Chloro-2-((1-methyl-1H-pyrazol-5-yl)amino)pyrimidin-4-yl)-7-(3,4-difluorobenzyl)-6-methyl-6,7-dihydroimidazo[1,2-a]pyrazin-8(5H)-one]
–	0.5 nM	110 nM	Cc1cnc(Nc2ccnn2C)nc1-c1cn2c(n1)C(=O)N(Cc1cccc(OC(F)F)c1)[C@@H](C)C2 [Example 28, (S)-7-(3-(Difluoromethoxy)benzyl)-6-methyl-2-(5-methyl-2-((1-methyl-1H-pyrazol-5-yl)amino)pyrimidin-4-yl)-6,7-dihydroimidazo[1,2-a]pyrazin-8(5H)-one]
12 nM	0.3 nM	–	Cc1cnc(Nc2ccnn2C)nc1-c1cn2c(n1)C(=O)N(Cc1cccc(Cl)c1)CC2 [Example 13, 7-(3-Chlorobenzyl)-2-(5-methyl-2-((1-methyl-1H-pyrazol-5-yl)amino)pyrimidin-4-yl)-6,7-dihydroimidazo[1,2-a]pyrazin-8(5H)-one]
